In patent publication US6399654B1, “Biflavanoids and derivatives thereof as antiviral agents” (priority 1995, dated 2002):
pEC50, pIC50: −log10 of the molar value. Values after ≈ are worked out from the molar mass of the structure shown. Marks after values point to notes of the source that are not given here.

Tests used:
[1] = tested on: Influenza B Panama/45/90; test: microbe, parasite or virus in culture; assay type: cell-based; conditions: Influenza B virus, MDCK; Influenza B Panama/45/90; read-out: CPE Inhibition EC50
[2] = tested on: Influenza A (A/NWS/33 (H1N1)); test: Influenza A virus infection in mice; assay type: in vivo, BALB/c mice
Protocol: Animals: Female 13-15 g specific pathogen-free BALB/c mice were obtained form Simonsen Laboratories (Gilroy, Calif.). They were quarantined 24 h prior to use, and maintained on Wayne Lab Blox and tap water. After being infected, their drinking water contained 0.006% oxytetracycline (Pfizer, New York, N.Y.) to control possible secondary bacterial infections.
Virus: A/NWS/33 (H1N1) was obtained from K. W. Cochran, Univ. of Michigan (Ann Arbor, Mich.). A virus pool was prepared in MDCK cells; this was titrated in mice, ampuled, and stored at −80° C. until used.
Compounds: Robustaflavone was stored at room temperature until used. Ribavirin, used as a positive control, was obtained from ICN Pharmaceuticals (Costa Mesa, Calif.). Vehicles considered included DMSO (Sigma Chemical Co., St. Louis, Mo.), DMF (Sigma), PEG M. W. 200 (Aldrich Chemical Co. Milwaukee, Wis.), 0.4% CMC (Sigma) and 1-methyl-2-pyrrolidinone (MPD, Aldrich).
Arterial Oxygen Saturation (SaO2) Determinations: SaO2 was determined using the Ohmeda Blox 3740 pulse oximeter (Ohmeda, Louisville, Ohio)). The ear probe attachment was used, the probe placed on the thigh of the animal, with the slow instrument mode selected. Readings were made after a 30 second stabilization time on each animal. Use of this device for measuring effects of influenza virus on arterial oxygen saturation have been described.^72
Lung Virus Determinations: Each mouse lung was homogenized and varying dilutions assayed in triplicate for infectious virus in MDCK cells as described previously.^73
4. Effect of robustaflavone in CMC or in DMSO on influenza virus infection in mice. In the study with CMC, robustaflavone was used in dosages of 200 and 100 mg/kg/day; using DMSO vehicle, the dosages were 75 and 37.5 mg/kg/day, with the compound administered i.p. twice daily for 5 days beginning 4 h pre-virus exposure. The mice were used in each dose to monitor effects on SaO2 and death; from an additional group of similarly infected and treated mice, 3 animals were killed on days 3, 5, 7 and 9 to assay for lung score (0=normal, 4=maximal consolidation), weight, and virus titer. Three to four mice were used as toxicity controls, which were weighed prior to treatment and again 18 h after treatment termination, and deaths noted daily. […] Three sets of virus controls were used: Infected-untreated, infected-treated with CMC only, and infected-treated with DMSO only. Twenty animals were used in each of these control groups to monitor SaO2 and death, with 3 additional mice taken in parallel with treated animals to determine effects on lung consolidation and virus titer. Two sets of normal controls were used; one group of three mice was weighed and held in parallel with the toxicity controls. From the second group three mice were killed on days 3 and 9 for comparison of lung score and weight.
Statistical Evaluation: Increase in survivor number was evaluated using chi square analysis with Yates' correction. Mean survival time increases, virus titer and SaO2 value differences were analyzed by t-test. Lung consolidation scores were evaluated by ranked sum analysis.

[3] = tested on: Madin Darby canine kidney (MDCK) cells; conditions: Influenza A (H3N2) test
[4] = Cytotoxicity in uninfected PHA-stimulated human PBM cells; conditions: human
[5] = tested on: Influenza A (H3N2) Beijing/32/92; test: microbe, parasite or virus in culture; assay type: cell-based, influenza A virus; conditions: Influenza A virus, MDCK; Influenza A (H3N2) Beijing/32/92; read-out: Neutral Red EC50
[6] = tested on: Adenovirus Type 5; test: microbe, parasite or virus in culture; assay type: cell-based; conditions: Human mastadenovirus C, A549, read-out: CPE Inhibition EC50
[7] = tested on: HSV-1; test: HSV-1 CPE inhibition in HFF cells; conditions: for HSV-1 SI (CC50/EC50): HFF Cells
[8] = tested on: HIV-1 (strain LAV-1); test: microbe, parasite or virus in culture; assay type: cell-based
[9] = Cytotoxicity (CC50) in HFF cells in the herpes virus tests; conditions: human
[10] = tested on: HFF Cells; test: as above; conditions: HFF Cells; for HSV-2 CPE Inhibition CC50: HSV-2 test
[11] = tested on: Respiratory Syncytial Virus; test: microbe, parasite or virus in culture; assay type: cell-based; conditions: human respiratory syncytial virus, MA104; read-out: CPE Inhibition EC50
[12] = tested on: Hepatitis B Virus (HBV); test: HBV replication intermediates (RI, intracellular HBV DNA) in 2.2.15 cells; assay type: cell-based
Protocol: (§1) Test compounds were added daily for a nine continuous day period; the culture medium was collected and stored for analysis of extracellular (virion) HBV DNA after 0, 3, 6, and 9 days of treatment. The treated cells were lysed 24 hours following day 9 of treatment for the analysis of intracellular HBV genomic forms. The overall levels of HBV DNA (both extracellular and intracellular DNA) and the relative rate of HBV replication (intracellular DNA) were analyzed quantitatively. The analysis was performed using blot hybridization techniques and [^32P]-labeled HBV-specific probes. The HBV DNA levels were measured by comparison to known amounts of HBV DNA standards applied to every nitrocellulose membrane (gel or slot blot). An AMBIS beta scanner, which measures the radioactive decay of the hybridized probes directly from the nitrocellulose membranes, was used for the quantitative analysis. Standard curves, generated by multiple analyses, were used to correlate CPM measurements made by the beta scanner with relative levels of target HBV DNA. The levels of HBV virion DNA released into the culture medium were analyzed by a slot blot hybridization procedure. HBV DNA levels were then compared to those at day 0 to determine the effect of the test compound. A known positive drug was evaluated in parallel with test compounds in each test.

[13] = tested on: 2.2.15 cells; test: HBV cytotoxicity assay, neutral red dye uptake in 2.2.15 cells; assay type: cell-based; conditions: Homo sapiens, read-out: IC50 (toxicity, neutral red dye uptake)
Protocol: The toxicity of the test compounds in cultures of 2.2.15 cells, grown to confluence in 96-well flat-bottomed tissue culture plates and treated with compounds as described above, were assayed at four concentrations each in triplicate cultures, in 3 to 10-fold steps. Untreated control cultures were maintained on each plate. On each plate, wells containing no cells were used to correct for light scattering.
Stock solutions of text drugs were prepared in DMSO.

[14] = tested on: Hepatitis B Virus (HBV); test: Inhibition of HBV replication in 2.2.15 cells, extracellular (virion) HBV DNA; conditions: for EC90: 2.2.15 cells; for SI (CC50/EC90), HBV Virion: selective index;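 for all read-outs here: extracellular virion HBV DNA in culture medium measured by slot blot hybridization with a 32P-labeled HBV probe, quantified against HBV DNA standards, after 9 days of daily dosing, compared with day 0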
Protocol: as §1
Determination of therapeutic concentrations (EC50 and EC90) and toxicity concentrations (IC50) were determined as previously described (90). Stock solutions of text drugs were prepared in DMSO. Culture medium was changed daily and analyzed for extracellular HBV DNA after nine days of continuous drug exposure. Extracellular HBV DNA was extracted from the culture media and analyzed by a slot blot hydridization technique, using a ^32P-labeled Eco RI HBV DNA fragment, as previously described (91), and quantitated via comparison to HBV standards on a nitrocellulose filter, using an AMBIS beta scanner. Toxicity was determined by measuring inhibition of neutral red dye uptake. […] Effective concentration values for individual agents are the mean of six cultures per concentration point. Toxicity values are the mean of three cultures per concentration point.

[15] = robustaflavone in 0.4% CMC, 200 mg/kg/day i.p. bid × 5
[16] = robustaflavone in 0.4% CMC, 1005 mg/kg/day (so in the source) i.p. bid × 5
[17] = robustaflavone in DMSO, 37.5 mg/kg/day i.p. bid × 5
[18] = robustaflavone in DMSO, 75 mg/kg/day i.p. bid × 5

For O=c1cc(-c2ccc(O)c(-c3c(O)cc4oc(-c5ccc(O)cc5)cc(=O)c4c3O)c2)oc2cc(O)cc(O)c12 [Robustaflavone (3), robustaflavone], the EC50 [1] was 0.23 µg/mL (≈ 0.427 µM), the “Infected, Treated MST” value [2, 15] was 11.1 days and the “Infected, Treated Mean SaO2” value [2, 15] was 84.6%. For the same compound, the “Infected, Treated Surv/Total” value [2, 15] was 0/9, the “Infected, Treated MST” value [2, 16] was 9.8 days and the “Infected, Treated Mean SaO2” value [2, 16] was 85.1** %. The “Infected, Treated Surv/Total” value [2, 16] was 0/10, the “Infected, Treated MST” value [2, 17] was 8.0 days and the “Infected, Treated Mean SaO2” value [2, 17] was 73.8%. The “Infected, Treated Surv/Total” value [2, 17] was 0/10, the “Infected, Treated MST (mean survival time)” value [2, 18] was 3.2 days and the “Infected, Treated Mean SaO2 (mean of days 3-10)” value [2, 18] was 70.6%. The “Infected, Treated Surv/Total” value ([2]; robustaflavone in DMSO, 75 mg/kg/day i.p. bid × 5 beg −4 h pre-virus) was 0/9, the “CPE Inhibition IC50 (cytotoxic)” value [3] was “˜32 ug/mL” and the pIC50 [4] was 4.11. The EC50 [5] was 1.8 µg/mL (≈ 3.34 µM), the EC50 [6] was greater than 100 µg/mL and the “HSV-1 SI (CC50/EC50)” value ([7]; listed as Robustaflavone(3)) was greater than 11.6. For the same compound, the “HSV-1 SI (CC50/EC50)” value ([7]; listed as robustaflavone (3)) was greater than 11.6, the EC50 ([7]; Human alphaherpesvirus 1, HFF, read-out: HSV-1 CPE Inhibition EC50) was 8.6 µg/mL (≈ 16 µM) and the “anti-HIV-1 activity in PBM cells (in words)” value [8] was “inactive”. The pEC50 ([8]; Human immunodeficiency virus 1, PBMC, human PBM cells infected with HIV-1 (strain LAV), read-out: Ant-HIV-1 in PBM cells EC50) was less than 4.00, the “Selective Index (SI)” value ([8]; PBM cells) was less than 1 and the CC50 at 3 days [9] was greater than 100 µg/mL. The CC50 at 14 days [9] was greater than 100 µg/mL, the “HSV-1 CPE Inhibition CC50” value ([10]; HSV-1 test) was greater than 100 µg/mL and the “HSV-2 CPE Inhibition CC50” value ([10]; listed as Robustaflavone(3)) was greater than 100 µg/mL. For the same compound, the “HSV-2 CPE Inhibition CC50” value ([10]; listed as robustaflavone (3)) was greater than 100 µg/mL, the EC50 [11] was greater than 100 µg/mL and the pEC50 ([12]; Hepatitis B virus, read-out: EC50, HBV replication intermediates (RI) (intracellular DNA)) was 6.22. The pEC50 ([12]; Hepatitis B virus, read-out: EC50, second value in parentheses) was 6.22, the EC90 ([12]; Hepatitis B virus, Table 2, value in parentheses, not explained, read-out: EC90, second value in parentheses) was 5.6 µM and the “SI (CC50/EC90), second value in parentheses” value ([12]; Table 2, value in parentheses, not explained) was 60. For the same compound, the pIC50 [13] was 3.47, the pEC50 ([14]; Hepatitis B virus, read-out: EC50, concentration necessary to decrease HBV DNA levels by 50%, 2.2.15 cells, combinations: with respect to RF) was 6.60 and the EC90 ([14]; read-out: EC90 (90% effective dose), HBV Virion, extracellular (virion) HBV DNA, 9 days treatment) was 2.4 µM. For the same compound, the EC90 ([14]; read-out: EC90 (90% effective dose), HBV Virion, extracellular (virion) HBV DNA, 9 days treatment, listed as Robustaflavone) was 2.2 µM, the EC90 ([14]; read-out: EC90, concentration necessary to decrease HBV DNA levels by 90%, combinations: with respect to RF) was 2.2 µM and the “SI (CC50/EC90), HBV Virion” value [14] was 153. The “SI (CC50/EC90), HBV Virion” value ([14]; listed as Robustaflavone) was 153 and the “SI (CC50/EC90), HBV Virion” value ([14]; listed as robustaflavone) was 153.
